Laboratory results from patent US10166229B2, “Compounds and methods for the treatment of cancer” (The Board of Trustees of the University of Illinois, priority 2005, dated 2019).
Values joined by “and” are separate entries in the source; they are usually repeats but may differ in a detail not shown here. Equal entries are not always repeated. “Also recorded” adds a separate entry of the source. Where two headings read alike, the source gives them in different places.

How the values were obtained:
[1] = system: white blood cells derived from the bone marrow of a healthy human donor; assay: Cell death in normal white blood cells; type: cell-based; details: relative to cancer cell lines
procaspase-3 [2] = target: T1, procaspase-3 (Homo sapiens (Human), UniProt P42574); assay: PAC-1 activation gel (Western blot of procaspase-3 cleavage); type: biochemical
T1 sequence (P42574 whole entry): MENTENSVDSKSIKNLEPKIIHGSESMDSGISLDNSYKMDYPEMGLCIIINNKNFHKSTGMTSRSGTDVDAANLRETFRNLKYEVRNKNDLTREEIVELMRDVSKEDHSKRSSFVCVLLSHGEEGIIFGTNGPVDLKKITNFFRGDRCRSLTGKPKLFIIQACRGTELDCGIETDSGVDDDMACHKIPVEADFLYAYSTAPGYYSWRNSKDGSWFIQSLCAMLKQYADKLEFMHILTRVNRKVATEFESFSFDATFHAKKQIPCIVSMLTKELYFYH
Description: Procaspase-3 was expressed and isolated exactly as above. Procaspase-3 was diluted to about 50 μg/mL in caspase assay buffer. […] After this incubation, an equal volume of load buffer (150 mM NaCl, 50 mM Tris, 2% SDS, 20% glycerol, pH 8.0) was added to each procaspase-3 sample. All samples were then stored at −80° C. until the time-course was completed. All samples were then incubated at 95° C. for 5 minutes and run on a 12% SDS-PAGE gel. Proteins were then transferred to nitrocellulose paper overnight. Blots were washed in TTBS (150 mM NaCl, 50 mM Tris, 0.1% Tween-20, pH 7.4) and blocked with a 10% milk solution for 2 hours. Blots were then incubated in a 1:5000 dilution of anti-Penta His Alexa Fluor 647 antibody for 2 hours. The blot was then washed with TTBS and scanned on a Typhoon fluorescence scanner (Amersham Biosciences, Sunnyvale Calif.).

[3] = system: ACHN (renal cancer) subcutaneous tumors; assay: ACHN xenograft, PAC-1/cholesterol pellet; type: in vivo, mice
HL-60 cell line = assay: IC50 of PAC-1 derivatives in HL-60 cell line (Table 5); type: cell-based
Text: The results are indicated in Table 5 (where L- and R-designations refer to structures shown in the AX and BX series above, respectively).

PARP-1 = PARP-1 (Homo sapiens (Human), UniProt P09874); assay: Control experiment: direct inhibition of PARP-1 enzymatic activity; type: biochemical; details: control experiments
PARP-1, sequence (P09874 whole entry, species assumed): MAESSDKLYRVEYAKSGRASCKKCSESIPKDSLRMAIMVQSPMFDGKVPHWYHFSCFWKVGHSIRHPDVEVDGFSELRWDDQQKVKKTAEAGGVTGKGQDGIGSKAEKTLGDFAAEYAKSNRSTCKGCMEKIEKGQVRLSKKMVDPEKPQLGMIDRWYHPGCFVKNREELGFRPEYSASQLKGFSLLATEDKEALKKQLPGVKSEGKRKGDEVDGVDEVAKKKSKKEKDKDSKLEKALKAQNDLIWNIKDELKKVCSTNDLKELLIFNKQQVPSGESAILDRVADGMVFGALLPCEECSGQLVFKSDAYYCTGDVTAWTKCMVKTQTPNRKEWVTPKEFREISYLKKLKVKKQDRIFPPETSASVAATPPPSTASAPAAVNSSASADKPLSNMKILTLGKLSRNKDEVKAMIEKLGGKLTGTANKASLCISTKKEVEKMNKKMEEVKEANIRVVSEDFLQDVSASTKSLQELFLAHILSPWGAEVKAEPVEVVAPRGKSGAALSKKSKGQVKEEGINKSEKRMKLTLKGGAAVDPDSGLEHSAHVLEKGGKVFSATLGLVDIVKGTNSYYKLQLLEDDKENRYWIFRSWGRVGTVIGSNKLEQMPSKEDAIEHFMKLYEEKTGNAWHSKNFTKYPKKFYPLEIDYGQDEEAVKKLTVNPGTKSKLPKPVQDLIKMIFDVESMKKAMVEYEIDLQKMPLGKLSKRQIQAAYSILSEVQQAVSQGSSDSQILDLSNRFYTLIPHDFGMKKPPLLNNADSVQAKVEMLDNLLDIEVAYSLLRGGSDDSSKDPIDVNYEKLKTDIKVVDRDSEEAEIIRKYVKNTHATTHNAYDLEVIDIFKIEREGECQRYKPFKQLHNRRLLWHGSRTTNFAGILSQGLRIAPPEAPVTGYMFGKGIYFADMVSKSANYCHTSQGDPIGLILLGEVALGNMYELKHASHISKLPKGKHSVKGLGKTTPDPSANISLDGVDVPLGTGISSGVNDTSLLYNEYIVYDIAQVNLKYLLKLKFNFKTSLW

active caspase-3 = active caspase-3 (Homo sapiens (Human), UniProt P42574); assay: Effect on fully processed caspase-3 enzyme; type: biochemical
active caspase-3, sequence (P42574 29-175): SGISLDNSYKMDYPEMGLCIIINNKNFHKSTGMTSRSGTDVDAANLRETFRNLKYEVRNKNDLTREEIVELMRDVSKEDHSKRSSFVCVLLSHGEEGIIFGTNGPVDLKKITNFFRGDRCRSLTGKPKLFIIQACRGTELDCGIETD
active caspase-3, sequence (P42574 176-277): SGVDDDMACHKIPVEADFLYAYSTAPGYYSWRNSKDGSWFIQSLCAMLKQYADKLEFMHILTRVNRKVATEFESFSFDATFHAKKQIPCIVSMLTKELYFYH
Description: Activation curves. The dose dependence of procaspase-3 activators was determined by adding various concentrations of compound to 90 μL of a 50 ng/mL procaspase-3, active caspase-3, procaspase-7 or active caspase-7 in caspase assay buffer in a 96-well plate. The plate was then incubated for 12 hours at 37° C. 10 μL of a 2 mM solution of Ac-DEVD-pNA (SEQ ID NO: 28) in caspase assay buffer was then added to each well. The plate was read every 2 minutes at 405 nm for 2 hours in a Spectra Max Plus 384 well plate reader. The slope of the linear portion for each well was determined and the fold increase in activation from non-treated control wells was calculated.

[4] = system: NCI-H226 (lung cancer) xenograft tumors; assay: NCI-H226 subcutaneous xenograft, oral gavage; type: in vivo, mice; details: oral gavage once a day for 21 days, 50 or 100 mg/kg
[5] = system: NCI-H226 (lung cancer) xenograft; assay: NCI-H226 xenograft, intraperitoneal PAC-1; type: in vivo, mice; details: i.p. 10 mg/kg
Description: A xenograft model was employed using NCI-H226 (lung cancer) cells. […] A comparison of efficacy was performed with gefitinib (Iressa™; AstraZeneca, Wilmington, Del.) at 40 mg/kg using 5 mice per group.

procaspase-3 [6] = target: T1, procaspase-3; assay: Effect of pH on PAC-1 activation of procaspase-3; type: biochemical; details: low pH values
Description: The plate was then incubated for 12 hours at 37° C. 10 μL of a 2 mM solution of Ac-DEVD-pNA (SEQ ID NO: 28) in caspase assay buffer was then added to each well. […] The slope of the linear portion for each well was determined and the fold increase in activation for each pH value was calculated.

[7] = system: primary colon cancer cells; assay: Cell death in primary cancerous cells from resected colon tumors; type: cell-based, human
[8] = Plasma PAC-1 content after pellet implantation; type: in vivo, mice; details: female, athymic BALB/c (nude), mouse, other: implantation of a pellet of PAC-1 and cholesterol, 5 mg pellet, after the 54 day experiment
Description: PAC-1 was evaluated in a mouse xenograft model using a slow release mode of drug delivery. In this model, subcutaneous tumors were formed in ovariectomized female athymic BALB/c (nude) mice using the ACHN (renal cancer) cell line. […] Tumor sizes were monitored for about 8 weeks. […] After the mice were sacrificed, plasma samples were taken from each mouse, and the PAC-1 content of each was analyzed.

[9] = system: cells from adjacent non-cancerous tissue; assay: Cell death in cells from adjacent non-cancerous colon tissue; type: cell-based, human
Text: To test this direct, small molecule-mediated procaspase-3 activation strategy in clinical isolates of cancer, we obtained freshly resected colon tumors (together with adjacent non-cancerous tissue) from 18 patients from Carle Foundation Hospital (Urbana, Ill.).

procaspase-3 [10] = target: T1, procaspase-3; assay: In vitro activation of purified procaspase-3 (activation curves, Ac-DEVD-pNA); type: biochemical; details: for EC50: read-out: EC50 for activation of procaspase-3
Description: Activation curves. […] The plate was read every 2 minutes at 405 nm for 2 hours in a Spectra Max Plus 384 well plate reader. The slope of the linear portion for each well was determined and the fold increase in activation from non-treated control wells was calculated. […]

[11] = system: white blood cells from bone marrow, Hs888Lu, MCF-10A, Hs578Bst; assay: Cell death in four non-cancerous cell types; type: cell-based
[12] = system: MCF-7, breast cancer cells; assay: Cell death IC50 in MCF-7; details: Homo sapiens, MCF7, read-out: IC50 for death induction, MCF-7
Description: Determination of IC50 values in various cell lines. 50 μL of media containing various concentrations of PAC-1 or etoposide was added to each well of a 96-well plate except control wells, which contained only DMSO. […] The plates were then incubated at 37° C. for approximately one hour until the colored product formed.

HL-60 cells = assay: Annexin V staining (phosphatidylserine exposure); type: cell-based, human
Description: Cells were harvested by centrifugation and washed twice in PBS. The cells were then washed in AnnexinV binding buffer (10 mM HEPES, 140 mM NaCl, 2.5 mM CaCl2, pH 7.4) and resuspended in 100 μL of Annexin V binding buffer. 5 μL of annexin V, Alexa Fluor 488 conjugate was added and the tubes were incubated at room temperature for 15 minutes protected from light. 400 μL of Annexin V binding buffer was then added, followed by the addition of 1 μL of a 1 mg/mL solution of propidium iodide. The fluorescent intensity of each cell was determined by flow cytometry at 525 nm (green channel) and 675 nm (red channel). At least 50,000 cells were analyzed in each experiment.

procaspase-7 = procaspase-7 (Homo sapiens (Human), UniProt P55210); details: read-out: EC50 for activation of procaspase-7
procaspase-7, sequence (P55210 whole entry): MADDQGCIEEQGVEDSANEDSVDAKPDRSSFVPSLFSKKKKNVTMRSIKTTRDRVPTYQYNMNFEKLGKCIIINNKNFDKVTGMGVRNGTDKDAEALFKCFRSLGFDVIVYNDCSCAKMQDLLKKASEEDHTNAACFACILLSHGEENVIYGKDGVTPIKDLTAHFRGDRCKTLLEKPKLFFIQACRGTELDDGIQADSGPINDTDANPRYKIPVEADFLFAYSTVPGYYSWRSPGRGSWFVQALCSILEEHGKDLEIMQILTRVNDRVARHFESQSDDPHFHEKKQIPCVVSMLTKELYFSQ

For `C=CCc1cccc(/C=N/NC(=O)CN2CCN(Cc3ccccc3)CC2)c1O` [PAC-1], the “potency/toxicity in normal white blood cells” value [1] was “comparatively less toxic; also recorded: markedly less potent”, the “effectiveness in procaspase-3 cleavage assay” value (procaspase-3 [2]; 5 μM) was “effective” and the “time to cleavage generating the p19 fragment” value (procaspase-3 [2]; 100 μM PAC-1) was at most 1 h. The “cleavage (processing) of procaspase-3” value (procaspase-3 [2]; 100 μM PAC-1, after 4 hours) was over 50%, the food consumption ([3]; last week of the experiment, 0, 1, 5 mg pellets) was “no difference in food consumption” and the “tumor growth, ACHN xenograft” value ([3]; pellet containing 5 mg of PAC-1, about 8 weeks) was “significantly retarded; also recorded: reduces the growth of tumors”. For the same compound, the “Fold better than PAC-1” value (HL-60 cell line; HL-60 IC50 relative to PAC-1) was 1.0 fold, the IC50 (HL-60 cell line; Homo sapiens, HL-60, Table 5) was 54.6 µM and the “direct inhibition of enzymatic activity of PARP-1” value (PARP-1) was “does not directly inhibit”. The “effect on catalytic activity of fully processed caspase-3 enzyme” value (active caspase-3) was “no effect”, the “tumor growth, NCI-H226 xenograft” value [4] was “significantly retards tumor growth in a dose-dependent manner” and the “growth in tumor volume, NCI-H226 xenograft” value [5] was “associated with reducing growth in tumor volume”. The “effect of PAC-1 on procaspase-3 at low pH” value (procaspase-3 [6]) was “abolished”, the “sensitivity of cells in cancerous tissue in comparison with normal tissue” value ([7]; FIG. 6B, Patient 3) was “greater than 80 fold” and the IC50 ([7]; Homo sapiens, read-out: IC50 in cancer cells from patient 17, patient 17) was 0.007 µM. For the same compound, the “sensitivity of cancer cells versus cells from adjacent normal tissue” value ([7]; patient 17) was “over 700 fold”, the concentration at 54 day [8] was 5 nM and the IC50 ([9]; Homo sapiens, read-out: PAC-1, IC50, Normal (adjacent non-cancerous tissue), per patient, 18 patients) was 5.02 to 9.98 µM. The IC50 ([9]; read-out: PAC-1, IC50, Normal (adjacent non-cancerous tissue), per patient, 18 patients) was 6.88 µM and 6.28 µM and 7.34 µM and 5.67 µM and 6.54 µM and 9.98 µM and 5.94 µM and 5.63 µM and 5.5 µM and 7.58 µM and 5.96 µM and 5.02 µM and 5.17 µM and 6.39 µM and 6.78 µM and 9.79 µM and 6.61 µM and 9.5 µM, the “procaspase-3 activation in vitro (in words)” value (procaspase-3 [10]) was “activate procaspase-3 in vitro” and the “Activity (direct activation of purified procaspase-3 in vitro)” value (procaspase-3 [10]; Table 2) was “Active”. For the same compound, the EC50 (procaspase-3 [10]; in vitro) was about 0.22 µM, the EC50 (procaspase-3 [10]; wild type procaspase-3 (DDD)) was 0.22 µM and the IC50 [11] was 3.2 to 8.5 µM. For the same compound, the IC50 [12] was over 75 µM, the “effectiveness in Annexin-V assay” value (HL-60 cells; 5 μM) was “effective” and the “phosphatidylserine exposure on the cell membrane” value (HL-60 cells; HL-60, 20 h, 100 μM) was “considerable phosphatidylserine exposure”. It also gave an EC50 (procaspase-7) of 4.5 µM.
